# Columns and labels:
# [1] = system: cultured hippocampal neurons; test: hydrogen peroxide neurotoxicity; type: cell-based, rat
# Excerpt: (§1) Dissociated embryonic rat hippocampal cell cultures were established and maintained. All procedures conformed with the NIH Guide for the Care and Use of Laboratory Animals and were approved by the University of Kentucky Animal Care and Use Committee. Cultures were maintained on a polyethyleneimine-coated substrate in plastic 35-mm dishes or 96 wall plates (for cell survival studies) or glass-bottom 35-mm dishes (for [Ca^2+ ]i imaging studies). The cell density was ^~ 70-100 cells/mm^2. Cells were maintained in Eagle's minimum essential medium supplemented 10% with fetal bovine serum and containing 20 mM sodium pyruvate. […] Aβ25-35 (Bachem, lot ZJ744) and Aβ1-40 (Bachem, lot ZK600) were stored in the lyophilized form, and stocks were prepared immediately before use by dissolving the peptide at a concentration of 1 mM in sterile distilled water. […] Glutamate and colchicine (Sigma) were prepared as 200-500x stocks in saline. Cytochalasins D and E (Sigma) and calcium ionophore 4-bromo-A23187 (Calbiochem) were prepared as 500x stocks in dimethyl sulfoxide. Vitamin E (α-tocopherol; Sigma) was prepared as a 500x stock in ethanol. Nordihydroguaiaretic acid and FeSo4 were prepared as 500x stocks in sterile water.
# (§2) Neuronal survival was quantified by counting viable neurons in the same microscope fields (10x objective) immediately before experimental treatment and at time points after treatment. In addition, cells were grown in 96-well plates and Alamar blue fluorescence (Alamar Laboratories)was quantified by using a fluorescence plate reader. Alamar Blue is a non-fluorescent substrate that, after reduction by cell metabolites, becomes fluorescent. […] Viability of the remaining neurons was assessed by morphological criteria. Neutrons with intact neurites of uniform diameter and a soma with a smooth, round appearance were considered viable, whereas neurons with fragmented neurites and a vacuolated or swollen soma were considered nonviable. Survival values were expressed as percentages of the initial number of neurons present before experimental treatment. Statistical comparisons were made using ANOVA and Scheffe post-hoc tests for pairwise comparisons.
# FIG. 15. […] Cultures were pretreated for 1 h with vehicle (Control), 100 nM cytochalasin D (CyD), or 50 μg/ml vitamin E (vE) and then exposed for 20 h to the indicated concentrations of hydrogen peroxide. Data are mean and SEM values of determinations made in four separate cultures.
# [2] = system: cultured hippocampal neurons; test: iron (FeSO4) neurotoxicity; type: cell-based, rat; settings: 50 μg/ml vitamin E or 2 μM NDGA, 1 h preincubation
# Excerpt: as §1
# (§3) Neuronal survival was quantified by counting viable neurons in the same microscope fields (10x objective) immediately before experimental treatment and at time points after treatment. In addition, cells were grown in 96-well plates and Alamar blue fluorescence (Alamar Laboratories)was quantified by using a fluorescence plate reader. Alamar Blue is a non-fluorescent substrate that, after reduction by cell metabolites, becomes fluorescent. Usually neurons that died in the time intervals (20-48 h) between examination points were absent. Viability of the remaining neurons was assessed by morphological criteria. Neutrons with intact neurites of uniform diameter and a soma with a smooth, round appearance were considered viable, whereas neurons with fragmented neurites and a vacuolated or swollen soma were considered nonviable. Survival values were expressed as percentages of the initial number of neurons present before experimental treatment. Statistical comparisons were made using ANOVA and Scheffe post-hoc tests for pairwise comparisons.
# FIG. 8. Cultures were preincubated 1 h in the presence of 0.5% dimethylsulfoxide (control), 100 nM cytochalasin D, 50 μg/ml vitamin E (VitE), or 2 μM nordihydroguairetic acid (NDGA). Cultures were then exposed for 6 h to the indicated concentrations of FeSO4 and neuronal survival was quantified. Values represent the means and SEM of determinations made in four separate cultures. *P<0.001 compared to value for cultures exposed to 100 μM FeSO4 alone.
# [3] = system: cultured hippocampal neurons; test: calcium ionophore A23187 neurotoxicity; type: cell-based, rat
# Excerpt: as §1
# as §2, with “Neutrons with intact neurites of uniform diameter and a soma with a smooth, round appearance were considered viable, whereas neurons with fragmented neurites and a vacuolated or swollen soma were considered nonviable.” left out, “Statistical comparisons were made using ANOVA and Scheffe post-hoc tests for pairwise comparisons.” left out
# FIG. 7. Cultures were pretreated for 1 h with 0.2% dimethylsulfoxide (control) or 100 nM cytochalasin D. Calcium ionophore A23187 was then added at the indicated concentrations and neuronal survival was assessed 8 h later. […]
# [4] = system: cultured hippocampal neurons; type: cell-based, rat; settings: 48-h period, added in soluble form
# Excerpt: as §1, §3
# FIG. 12. (A) Cultures were pretreated for 1 h with vehicle 0.2% dimethyl sulfoxide (Control) or 100 nM cytochalasin D (CyD) and were exposed to the indicated concentrations of Aβ25-35 for 48 h. Data are mean and SEM values of determinations made in four separate cultures.
# (B) Cultures were pretreated for 1 h with the indicated concentrations of cytochalasin D and then exposed to 50 μM Aβ25-35; parallel cultures were exposed to cytochalasin D alone (Control) . Data are mean and SEM values of determinations made in four separate cultures.
# FIG. 14. Cultures were exposed to 100 nM colchicine; 50 μM Aβ; 100 nM colchicine plus 50 μM Aβ; 100 nM cytochalasin E (CyE) plus Aβ (colchicine and cytochalasin E were added 1 h before Aβ); neuronal survival was assessed 48 h later. Data are mean and SEM values of determinations made in four separate cultures. *p<0.01, compared with values for control or colchicine alone. **p<0.01, compared with value for cultures exposed to Aβ alone.
# [5] = aggregation of peptides in culture medium; type: physicochemical
# Excerpt: as §1
compound,measurement,setting,value
"OO [Hydrogen peroxide, hydrogen peroxide, reference compound]",neuronal survival,[1]; 20-h exposure,concentration-dependent reduction in neuronal survival
"Cc1c(C)c2c(c(C)c1O)CCC(C)(CCCC(C)CCCC(C)CCCC(C)C)O2 (stereo not drawn) [Vitamin E, α-tocopherol, reference compound]",effect on neurotoxicity of hydrogen peroxide,"[1]; 50 μg/ml, 1 h pretreatment, 20 h",largely prevented
same,effect on neurotoxicity of iron,[2],completely blocked
CNc1ccc2oc(C[C@H]3O[C@@]4(CC[C@H]3C)O[C@H]([C@H](C)C(=O)c3ccc[nH]3)[C@H](C)C[C@H]4C)nc2c1C(=O)O [A23187],neurons killed,[3]; 1 μM,essentially all neurons being killed
same,neuronal survival,[3]; 100-1000 nM,concentration-dependent reduction in neuronal survival
"Aβ1-40: Aβ1-40 (Bachem, lot ZK600), amyloid β-peptide [reference compound]","neurotoxicity, preliminary characterization",[4],progressively killed neurons
same,aggregation in culture medium,[5],aggregated rapidly

# — patent US5830910A (priority 1995, dated 1998)
